PubChem BioAssay (NCI)
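48-hour exposure; five concentrations; linearly interpolated endpoints. TGI denotes the concentration required for complete inhibition of growth.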

Columns and labels:
Assay in all cases: growth of human tumour cells (NCI), 48 h
[1] = system: T-47D breast
[2] = system: OVCAR-8 ovarian
[3] = system: RPMI-8226 leukemia
[4] = system: OVCAR-4 ovarian
[5] = system: RXF 393 renal
[6] = system: LOX IMVI melanoma
[7] = system: SW-620 colon
[8] = system: UO-31 renal
[9] = system: SF-268 CNS
[10] = system: NCI-H460 lung
[11] = system: HT29 colon
[12] = system: UACC-257 melanoma
[13] = system: HOP-92 NSCLC
[14] = system: BT-549 breast
[15] = system: NCI-H23 lung
[16] = system: ACHN renal
[17] = system: HL-60(TB) leukemia
[18] = system: IGROV1 ovarian
[19] = system: 786-0 renal
[20] = system: HS 578T breast
[21] = system: SK-OV-3 ovarian
[22] = system: SF-539 CNS
[23] = system: OVCAR-5 ovarian
[24] = system: A549 NSCLC
[25] = system: M14 melanoma
[26] = system: CAKI-1 renal
[27] = system: DU-145 prostate
[28] = system: SR leukemia
[29] = system: U251 CNS
[30] = system: A498 renal
[31] = system: KM12 colon
[32] = system: EKVX NSCLC
[33] = system: MDA-MB-435
[34] = system: NCI/ADR-RES ovarian
[35] = system: SNB-75 CNS
[36] = system: SK-MEL-2 melanoma
[37] = system: COLO 205 colon
[38] = system: HCT-116 colon
[39] = system: OVCAR-3 ovarian
[40] = system: HOP-62 NSCLC
[41] = system: MALME-3M melanoma
[42] = system: NCI-H522 lung
[43] = system: MDA-N
[44] = system: HCC-2998 colon
[45] = system: CCRF-CEM leukemia
[46] = system: SK-MEL-5 melanoma
[47] = system: SK-MEL-28 melanoma
[48] = system: MDA-MB-231 breast
[49] = system: SF-295 CNS
[50] = system: TK-10 renal
[51] = system: PC-3 prostate
[52] = system: UACC-62 melanoma
[53] = system: SNB-19 CNS
[54] = system: SN12C renal
[55] = system: MCF7 breast
[56] = system: HCT-15 colon
[57] = system: NCI-H226 lung
[58] = system: MOLT-4 leukemia
[59] = system: K-562 leukemia

Cc1cc2c(SCc3ccccc3Cl)nc(N)nc2nc1C
TGI [1]: > 100 µM | TGI [2]: > 100 µM | TGI [3]: > 100 µM | TGI [4]: > 100 µM | TGI [5]: > 100 µM | TGI [6]: > 100 µM | TGI [7]: > 100 µM | TGI [8]: > 100 µM | TGI [9]: > 100 µM | TGI [10]: > 100 µM | TGI [11]: > 100 µM | TGI [12]: > 100 µM | TGI [13]: > 100 µM | TGI [14]: > 100 µM | TGI [15]: > 100 µM | TGI [16]: > 100 µM | TGI [17]: > 100 µM | TGI [18]: > 100 µM | TGI [19]: > 100 µM | TGI [20]: > 100 µM | TGI [21]: > 100 µM | TGI [22]: > 100 µM | TGI [23]: > 100 µM | TGI [24]: > 100 µM | TGI [25]: > 100 µM | TGI [26]: > 100 µM | TGI [27]: > 100 µM | TGI [28]: > 100 µM | TGI [29]: > 100 µM | TGI [30]: > 100 µM | TGI [31]: > 100 µM | TGI [32]: > 100 µM | TGI [33]: > 100 µM | TGI [34]: > 100 µM | TGI [35]: > 100 µM | TGI [36]: > 100 µM | TGI [37]: > 100 µM | TGI [38]: > 100 µM | TGI [39]: > 100 µM | TGI [40]: > 100 µM | TGI [41]: > 100 µM | TGI [42]: > 100 µM | TGI [43]: > 100 µM | TGI [44]: > 100 µM | TGI [45]: > 100 µM | TGI [46]: > 100 µM | TGI [47]: > 100 µM | TGI [48]: > 100 µM | TGI [49]: > 100 µM | TGI [50]: > 100 µM | TGI [51]: > 100 µM | TGI [52]: > 100 µM | TGI [53]: > 100 µM | TGI [54]: > 100 µM | TGI [55]: > 100 µM | TGI [56]: > 100 µM

CCOP(=O)(OCC)/C(C#N)=C(\C)c1ccco1
TGI [1]: > 10 µM | TGI [2]: > 10 µM | TGI [3]: > 10 µM | TGI [4]: > 10 µM | TGI [5]: > 10 µM | TGI [6]: > 10 µM | TGI [7]: > 10 µM | TGI [8]: > 10 µM | TGI [9]: > 10 µM | TGI [10]: > 10 µM | TGI [11]: > 10 µM | TGI [12]: > 10 µM | TGI [13]: > 10 µM | TGI [14]: > 10 µM | TGI [15]: > 10 µM | TGI [16]: > 10 µM | TGI [17]: > 10 µM | TGI [18]: > 10 µM | TGI [19]: > 10 µM | TGI [20]: > 10 µM | TGI [21]: > 10 µM | TGI [22]: > 10 µM | TGI [23]: > 10 µM | TGI [24]: > 10 µM | TGI [25]: > 10 µM | TGI [26]: > 10 µM | TGI [27]: > 10 µM | TGI [28]: > 10 µM | TGI [57]: > 10 µM | TGI [29]: > 10 µM | TGI [58]: > 10 µM | TGI [30]: > 10 µM | TGI [59]: > 10 µM | TGI [31]: > 10 µM | TGI [32]: > 10 µM | TGI [33]: > 10 µM | TGI [34]: > 10 µM | TGI [35]: > 10 µM | TGI [36]: > 10 µM | TGI [37]: > 10 µM | TGI [38]: > 10 µM | TGI [39]: > 10 µM | TGI [40]: > 10 µM | TGI [41]: > 10 µM | TGI [43]: > 10 µM | TGI [44]: > 10 µM | TGI [45]: > 10 µM | TGI [46]: > 10 µM | TGI [47]: > 10 µM | TGI [48]: > 10 µM | TGI [49]: > 10 µM | TGI [50]: > 10 µM | TGI [51]: > 10 µM | TGI [52]: > 10 µM | TGI [53]: > 10 µM | TGI [54]: > 10 µM | TGI [55]: > 10 µM | TGI [56]: > 10 µM
